Test results: US8952024B2, “Herbicidal pyrimidone derivatives” (E I du Pont de Nemours and Company, priority 2009, dated 2015)

How the values were obtained:
Experiment in all cases: Test D pre-/postemergence plant response
Assay type in all cases: in vivo
[1] = tested on: Russian thistle (Salsola kali)
In short: (§1)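 Seeds in loam–sand blend treated preemergence, and plants at 1- to 4-leaf stage (2–18 cm) treated postemergence, with compounds in non-phytotoxic solvent with surfactant. Greenhouse for 14–21 days, then visual rating against controls, 0 (no effect) to 100 (complete control).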

[2] = tested on: ragweed (common ragweed, Ambrosia elatior)
In short: as §1

[3] = tested on: barnyardgrass (Echinochloa crus-galli)
In short: as §1

[4] = tested on: sandbur (southern sandbur, Cenchrus echinatus)
In short: as §1

[5] = tested on: dallisgrass (Paspalum dilatatum)
In short: as §1

[6] = tested on: dayflower (Virginia (VA) dayflower, Commelina virginica)
In short: as §1

[7] = tested on: signalgrass (broadleaf signalgrass, Brachiaria platyphylla)
In short: as §1

[8] = tested on: bermudagrass (Cynodon dactylon)
In short: as §1

[9] = tested on: sowthistle (common sowthistle, Sonchus oleraceous)
In short: as §1

[10] = tested on: mallow (common mallow, Malva sylvestris)
In short: as §1

[11] = tested on: green foxtail (Setaria viridis)
In short: as §1

[12] = tested on: prickly sida (Sida spinosa)
In short: as §1

[13] = tested on: quackgrass (Elytrigia repens)
In short: as §1

[14] = tested on: guineagrass (Panicum maximum)
In short: as §1

[15] = tested on: black mustard (Brassica nigra)
In short: as §1

[16] = tested on: itchgrass (Rottboellia cochinchinensis)
In short: as §1

[17] = Postemergence, 16 g ai/ha, scale 0 to 100
[18] = Postemergence, 31 g ai/ha, scale 0 to 100
[19] = Postemergence, 125 g ai/ha, scale 0 to 100 (0 no effect, 100 complete control)
[20] = Postemergence, 62 g ai/ha, scale 0 to 100 (0 no effect, 100 complete control)
[21] = Preemergence, 16 g ai/ha, scale 0 to 100, 0 no effect, 100 complete control
[22] = Preemergence, 31 g ai/ha, scale 0 to 100 (0 no effect, 100 complete control)
[23] = Preemergence, 125 g ai/ha, scale 0 to 100
[24] = Postemergence, 31 g ai/ha, scale 0 to 100 (0 no effect, 100 complete control)
[25] = Preemergence, 62 g ai/ha, scale 0 to 100

Question: How did the “Plant response rating, Russian Thistle” value [1, 17] turn out when O=C1CCCC(O)=C1C(=O)c1cnc(-c2cccnc2)n(-c2ccccc2)c1=O [Compound 113, 5-[(2-hydroxy-6-oxo-1-cyclohexen-1-yl)carbonyl]-3-phenyl-2-(3-pyridinyl)-4(3H)-pyrimidone] was run?
Answer: 0

Question: And the “Plant response rating, Russian Thistle” value [1, 18]?
Answer: 0

Question: What about the “Plant response rating, Russian Thistle” value [1, 19] of the same compound?
Answer: 20

Question: What about the “Plant response rating, Russian Thistle” value [1, 20] of the same compound?
Answer: 20

Question: What about the “Plant response rating, Russian Thistle” value [1, 21] of the same compound?
Answer: 0

Question: And the “Plant response rating, Russian Thistle” value [1, 22]?
Answer: 65

Question: What about the “Plant response rating, Russian Thistle” value [1, 23] of the same compound?
Answer: 100

Question: And the “Plant response rating, Ragweed” value [2, 17]?
Answer: 70

Question: What about the “Plant response rating, Ragweed” value [2, 18] of the same compound?
Answer: 70

Question: What about the “Plant response rating, Ragweed” value [2, 19] of the same compound?
Answer: 80

Question: And the “Plant response rating, Ragweed” value [2, 20]?
Answer: 75

Question: What about the “Plant response rating, Ragweed” value [2, 21] of the same compound?
Answer: 0

Question: And the “Plant response rating, Ragweed” value [2, 22]?
Answer: 50

Question: And the “Plant response rating, Ragweed” value [2, 23]?
Answer: 98

Question: And the “Plant response rating, Barnyardgrass” value [3, 17]?
Answer: 65

Question: What about the “Plant response rating, Barnyardgrass” value [3, 24] of the same compound?
Answer: 75

Question: What about the “Plant response rating, Barnyardgrass” value [3, 19] of the same compound?
Answer: 80

Question: And the “Plant response rating, Barnyardgrass” value [3, 20]?
Answer: 80

Question: And the “Plant response rating, Barnyardgrass” value [3, 21]?
Answer: 0

Question: And the “Plant response rating, Barnyardgrass” value [3, 22]?
Answer: 0

Question: And the “Plant response rating, Barnyardgrass” value [3, 25]?
Answer: 0

Question: And the “Plant response rating, Barnyardgrass” value [3, 23]?
Answer: 35

Question: What about the “Plant response rating, Sandbur” value [4, 17] of the same compound?
Answer: 5

Question: What about the “Plant response rating, Sandbur” value [4, 18] of the same compound?
Answer: 10

Question: What about the “Plant response rating, Sandbur” value [4, 19] of the same compound?
Answer: 60

Question: What about the “Plant response rating, Sandbur” value [4, 20] of the same compound?
Answer: 60

Question: What about the “Plant response rating, Sandbur” value [4, 21] of the same compound?
Answer: 0

Question: What about the “Plant response rating, Sandbur” value [4, 22] of the same compound?
Answer: 0

Question: And the “Plant response rating, Sandbur” value [4, 23]?
Answer: 90

Question: What about the “Plant response rating, Dallisgrass” value [5, 17] of the same compound?
Answer: 10

Question: What about the “Plant response rating, Dallisgrass” value [5, 18] of the same compound?
Answer: 10

Question: And the “Plant response rating, Dallisgrass” value [5, 19]?
Answer: 70

Question: And the “Plant response rating, Dallisgrass” value [5, 20]?
Answer: 60

Question: And the “Plant response rating, Dallisgrass” value [5, 21]?
Answer: 5

Question: And the “Plant response rating, Dallisgrass” value [5, 22]?
Answer: 50

Question: What about the “Plant response rating, Dallisgrass” value [5, 25] of the same compound?
Answer: 50

Question: What about the “Plant response rating, Dallisgrass” value [5, 23] of the same compound?
Answer: 100

Question: What about the “Plant response rating, Dayflower, VA” value [6, 17] of the same compound?
Answer: 20

Question: What about the “Plant response rating, Dayflower, VA” value [6, 18] of the same compound?
Answer: 40

Question: What about the “Plant response rating, Dayflower, VA” value [6, 19] of the same compound?
Answer: 60

Question: And the “Plant response rating, Dayflower, VA” value [6, 20]?
Answer: 60

Question: What about the “Plant response rating, Dayflower, VA” value [6, 21] of the same compound?
Answer: 50

Question: And the “Plant response rating, Dayflower, VA” value [6, 22]?
Answer: 50

Question: And the “Plant response rating, Dayflower, VA” value [6, 25]?
Answer: 50

Question: And the “Plant response rating, Dayflower, VA” value [6, 23]?
Answer: 65

Question: And the “Plant response rating, Signalgrass” value [7, 17]?
Answer: 5

Question: And the “Plant response rating, Signalgrass” value [7, 18]?
Answer: 40

Question: And the “Plant response rating, Signalgrass” value [7, 19]?
Answer: 75

Question: And the “Plant response rating, Signalgrass” value [7, 20]?
Answer: 60

Question: What about the “Plant response rating, Signalgrass” value [7, 21] of the same compound?
Answer: 0

Question: And the “Plant response rating, Signalgrass” value [7, 22]?
Answer: 0

Question: What about the “Plant response rating, Signalgrass” value [7, 23] of the same compound?
Answer: 90

Question: What about the “Plant response rating, Bermudagrass” value [8, 17] of the same compound?
Answer: 65

Question: What about the “Plant response rating, Bermudagrass” value [8, 24] of the same compound?
Answer: 70

Question: And the “Plant response rating, Bermudagrass” value [8, 19]?
Answer: 80

Question: What about the “Plant response rating, Bermudagrass” value [8, 20] of the same compound?
Answer: 80

Question: And the “Plant response rating, Bermudagrass” value [8, 21]?
Answer: 50

Question: And the “Plant response rating, Bermudagrass” value [8, 22]?
Answer: 50

Question: And the “Plant response rating, Bermudagrass” value [8, 25]?
Answer: 70

Question: What about the “Plant response rating, Bermudagrass” value [8, 23] of the same compound?
Answer: 85

Question: What about the “Plant response rating, Sowthistle” value [9, 17] of the same compound?
Answer: 90

Question: And the “Plant response rating, Sowthistle” value [9, 18]?
Answer: 95

Question: What about the “Plant response rating, Sowthistle” value [9, 19] of the same compound?
Answer: 100

Question: And the “Plant response rating, Sowthistle” value [9, 20]?
Answer: 100

Question: What about the “Plant response rating, Sowthistle” value [9, 21] of the same compound?
Answer: 50

Question: What about the “Plant response rating, Sowthistle” value [9, 22] of the same compound?
Answer: 75

Question: What about the “Plant response rating, Sowthistle” value [9, 23] of the same compound?
Answer: 100

Question: What about the “Plant response rating, Mallow” value [10, 17] of the same compound?
Answer: 0

Question: What about the “Plant response rating, Mallow” value [10, 18] of the same compound?
Answer: 0

Question: What about the “Plant response rating, Mallow” value [10, 19] of the same compound?
Answer: 20

Question: And the “Plant response rating, Mallow” value [10, 20]?
Answer: 0

Question: What about the “Plant response rating, Mallow” value [10, 21] of the same compound?
Answer: 0

Question: And the “Plant response rating, Mallow” value [10, 22]?
Answer: 5

Question: What about the “Plant response rating, Mallow” value [10, 25] of the same compound?
Answer: 5

Question: And the “Plant response rating, Mallow” value [10, 23]?
Answer: 90

Question: And the “Plant response rating, Foxtail, Green” value [11, 17]?
Answer: 25

Question: What about the “Plant response rating, Foxtail, Green” value [11, 18] of the same compound?
Answer: 60

Question: And the “Plant response rating, Foxtail, Green” value [11, 19]?
Answer: 90

Question: And the “Plant response rating, Foxtail, Green” value [11, 20]?
Answer: 70

Question: What about the “Plant response rating, Foxtail, Green” value [11, 21] of the same compound?
Answer: 0

Question: And the “Plant response rating, Foxtail, Green” value [11, 22]?
Answer: 0

Question: What about the “Plant response rating, Foxtail, Green” value [11, 25] of the same compound?
Answer: 0

Question: And the “Plant response rating, Foxtail, Green” value [11, 23]?
Answer: 20

Question: What about the “Plant response rating, Prickly Sida” value [12, 17] of the same compound?
Answer: 50

Question: And the “Plant response rating, Prickly Sida” value [12, 18]?
Answer: 60

Question: And the “Plant response rating, Prickly Sida” value [12, 19]?
Answer: 70

Question: What about the “Plant response rating, Prickly Sida” value [12, 20] of the same compound?
Answer: 70

Question: And the “Plant response rating, Prickly Sida” value [12, 21]?
Answer: 0

Question: And the “Plant response rating, Prickly Sida” value [12, 22]?
Answer: 35

Question: What about the “Plant response rating, Prickly Sida” value [12, 25] of the same compound?
Answer: 70

Question: And the “Plant response rating, Prickly Sida” value [12, 23]?
Answer: 90

Question: And the “Plant response rating, Quackgrass” value [13, 17]?
Answer: 0

Question: And the “Plant response rating, Quackgrass” value [13, 18]?
Answer: 0

Question: What about the “Plant response rating, Quackgrass” value [13, 19] of the same compound?
Answer: 30

Question: And the “Plant response rating, Quackgrass” value [13, 20]?
Answer: 20

Question: What about the “Plant response rating, Quackgrass” value [13, 21] of the same compound?
Answer: 0

Question: What about the “Plant response rating, Quackgrass” value [13, 22] of the same compound?
Answer: 0

Question: And the “Plant response rating, Quackgrass” value [13, 23]?
Answer: 0

Question: What about the “Plant response rating, Guineagrass” value [14, 17] of the same compound?
Answer: 25

Question: And the “Plant response rating, Guineagrass” value [14, 18]?
Answer: 25

Question: And the “Plant response rating, Guineagrass” value [14, 19]?
Answer: 70

Question: And the “Plant response rating, Guineagrass” value [14, 20]?
Answer: 50

Question: What about the “Plant response rating, Guineagrass” value [14, 21] of the same compound?
Answer: 0

Question: What about the “Plant response rating, Guineagrass” value [14, 22] of the same compound?
Answer: 65

Question: What about the “Plant response rating, Guineagrass” value [14, 25] of the same compound?
Answer: 100

Question: What about the “Plant response rating, Guineagrass” value [14, 23] of the same compound?
Answer: 100

Question: What about the “Plant response rating, Black Mustard” value [15, 17] of the same compound?
Answer: 100

Question: What about the “Plant response rating, Black Mustard” value [15, 19] of the same compound?
Answer: 100

Question: And the “Plant response rating, Black Mustard” value [15, 20]?
Answer: 100

Question: What about the “Plant response rating, Black Mustard” value [15, 21] of the same compound?
Answer: 0

Question: What about the “Plant response rating, Black Mustard” value [15, 22] of the same compound?
Answer: 0

Question: And the “Plant response rating, Black Mustard” value [15, 25]?
Answer: 80

Question: What about the “Plant response rating, Black Mustard” value [15, 23] of the same compound?
Answer: 100

Question: And the “Plant response rating, Itchgrass” value [16, 17]?
Answer: 0

Question: And the “Plant response rating, Itchgrass” value [16, 18]?
Answer: 10

Question: What about the “Plant response rating, Itchgrass” value [16, 19] of the same compound?
Answer: 70

Question: What about the “Plant response rating, Itchgrass” value [16, 20] of the same compound?
Answer: 65

Question: And the “Plant response rating, Itchgrass” value [16, 21]?
Answer: 0

Question: What about the “Plant response rating, Itchgrass” value [16, 22] of the same compound?
Answer: 0

Question: And the “Plant response rating, Itchgrass” value [16, 25]?
Answer: 0

Question: What about the “Plant response rating, Itchgrass” value [16, 23] of the same compound?
Answer: 0
